What all share (format): in vivo
Test [1] has as its system AMAPA. Description: Pre-emergence biological efficacy. The settings on record: 312 h, evaluated after 13 days, read-out: damage to plant (100=total damage to plant; 0=no damage to plant), AMAPA. The protocol: (§1) Pre-Emergence Biological Efficacy
(§2) Seeds of weeds and/or crops were sown in standard soil in pots. After cultivation for one day under controlled conditions in a glasshouse (at 24/16° C., day/night; 14 hours light; 65% humidity), the plants were sprayed with an aqueous spray solution derived from the formulation of the technical active ingredient in acetone/water (50:50) solution containing 0.5% Tween 20 (polyoxyethylene sorbitan monolaurate, CAS RN 9005-64-5) to give the desired final dose of test compound.
(§3) The test plants were then grown under controlled conditions in the glasshouse (at 24/16° C., day/night; 14 hours light; 65% humidity) and watered twice daily. After 13 days the test was evaluated (100=total damage to plant; 0=no damage to plant).

The subject of test [2] is ECHCG. Description: Pre-emergence biological efficacy. The conditions noted are these: Echinochloa crus-galli, 312 h, evaluated after 13 days, read-out: damage to plant (100=total damage to plant; 0=no damage to plant), ECHCG. The protocol:
as §1, §2, §3

For test [3], the system named is EPHHL. Description: Pre-emergence biological efficacy. The conditions noted are these: 312 h, evaluated after 13 days, read-out: damage to plant (100=total damage to plant; 0=no damage to plant), EPHHL. The protocol:
as §1, §2, §3

Test [4] deals with IPOHE. As to the kind of experiment: Pre-emergence biological efficacy. The conditions noted are these: Ipomoea hederacea, 312 h, evaluated after 13 days, read-out: damage to plant (100=total damage to plant; 0=no damage to plant), IPOHE. On the procedure:
as §1, §2, §3

For test [5], the system named is LOLPE. Description: Pre-emergence biological efficacy. The conditions noted are these: 312 h, evaluated after 13 days, read-out: damage to plant (100=total damage to plant; 0=no damage to plant), LOLPE. On the procedure: as §1, §2, §3
Test [6] has as its system SETFA. As to the kind of experiment: Pre-emergence biological efficacy. The conditions noted are these: Setaria faberi, 312 h, evaluated after 13 days, read-out: damage to plant (100=total damage to plant; 0=no damage to plant), SETFA. The protocol: as §1, §2, §3
Test [7] relates to AMAPA. Description: Post-emergence biological efficacy. The settings on record: 312 h, evaluated after 13 days, read-out: damage to plant (100=total damage to plant; 0=no damage to plant), AMAPA. On the procedure:
(§4) Post-Emergence Biological Efficacy
(§5) Seeds of weeds and/or crops were sown in standard soil in pots. After cultivation for 8 days under controlled conditions in a glasshouse (at 24/16° C., day/night; 14 hours light; 65% humidity), the plants were sprayed with an aqueous spray solution derived from the formulation of the technical active ingredient in acetone/water (50:50) solution containing 0.5% Tween 20 (polyoxyethylene sorbitan monolaurate, CAS RN 9005-64-5) to give the desired final dose of test compound.
(§6) The test plants were then grown on under controlled conditions in a glasshouse (at 24/16° C., day/night; 14 hours light; 65% humidity) and watered twice daily. After 13 days the test was evaluated (100=total damage to plant; 0=no damage to plant).

The subject of test [8] is CHEAL. As to the kind of experiment: Post-emergence biological efficacy. The conditions noted are these: Chenopodium album, 312 h, evaluated after 13 days, read-out: damage to plant (100=total damage to plant; 0=no damage to plant), CHEAL. On the procedure:
as §4, §5, §6

The subject of test [9] is DIGSA. As to the kind of experiment: Post-emergence biological efficacy. The conditions noted are these: Digitaria sanguinalis, 312 h, evaluated after 13 days, read-out: damage to plant (100=total damage to plant; 0=no damage to plant), DIGSA. The protocol: as §4, §5, §6
Test [10] has as its system ECHCG. As to the kind of experiment: Post-emergence biological efficacy. The conditions noted are these: Echinochloa crus-galli, 312 h, evaluated after 13 days, read-out: damage to plant (100=total damage to plant; 0=no damage to plant), ECHCG. The protocol:
as §4, §5, §6

Test [11] relates to ELEIN. Description: Post-emergence biological efficacy. The conditions noted are these: 312 h, evaluated after 13 days, read-out: damage to plant (100=total damage to plant; 0=no damage to plant), ELEIN. On the procedure:
as §4, §5, §6

The test system of test [12] is EPHHL. As to the kind of experiment: Post-emergence biological efficacy. The conditions noted are these: 312 h, evaluated after 13 days, read-out: damage to plant (100=total damage to plant; 0=no damage to plant), EPHHL. On the procedure: as §4, §5, §6
Test [13] deals with IPOHE. Description: Post-emergence biological efficacy. The settings on record: Ipomoea hederacea, 312 h, evaluated after 13 days, read-out: damage to plant (100=total damage to plant; 0=no damage to plant), IPOHE. The protocol: as §4, §5, §6
The test system of test [14] is LOLPE. Description: Post-emergence biological efficacy. The settings on record: evaluated after 13 days; for pest or weed control at 250 g/ha: 312 h, read-out: damage to plant (100=total damage to plant; 0=no damage to plant), LOLPE. On the procedure: as §4, §5, §6
Test [15] relates to SETFA. Description: Post-emergence biological efficacy. The settings on record: Setaria faberi, 312 h, evaluated after 13 days, read-out: damage to plant (100=total damage to plant; 0=no damage to plant), SETFA. On the procedure: as §4, §5, §6

The values below come from patent US12202821B2, “Herbicidal compounds” (SYNGENTA CROP PROTECTION AG, priority 2019, dated 2025).

`CCOC(=O)C1(C)CC(c2cc(-n3c(=O)n(C)c(=S)n(C)c3=O)c(F)cc2Cl)=NO1` (stereo not drawn) [Compound 47, ethyl 3-[2-chloro-5-(3,5-dimethyl-2,6-dioxo-4-thioxo-1,3,5-triazinan-1-yl)-4-fluoro-phenyl]-5-methyl-4H-isoxazole-5-carboxylate]: the pest or weed control at 250 g/ha in [1] turned out to be 100%; in test [2], 100%; in [3], 100%; in [4], 100%; in [5], 70%; in test [6], 100%. For the same compound, the pest or weed control at 250 g/ha in [7], in test [8], in test [9], in [10], in test [11] and in test [12] was 100% each time. In addition, the pest or weed control at 250 g/ha in test [13], in test [14] and in test [15] was 100% throughout.

In the case of `CC(=O)OCC1(C)CC(c2cc(-n3c(=O)n(C)c(=S)n(C)c3=O)c(F)cc2Cl)=NO1` (stereo not drawn) [Compound 51, [3-[2-Chloro-5-(3,5-dimethyl-2,6-dioxo-4-thioxo-1,3,5-triazinan-1-yl)-4-fluoro-phenyl]-5-methyl-4H-isoxazol-5-yl]methyl acetate], the pest or weed control at 250 g/ha was 100% in test [1]; 90% in test [2]; 100% in [3]; 80% in test [4]; 90% in [5]; 100% in test [6]. Further, the pest or weed control at 250 g/ha stood at 100% in test [7]; 100% in test [8]; 100% in test [9]; 30% in test [10]; 80% in [11]; 100% in test [12]. The pest or weed control at 250 g/ha in test [13] is 90%; in test [14], 50%; in test [15], 100%.

As for `Cn1c(=S)n(C)c(=O)n(-c2cc(C3=NOC(C)(C(N)=O)C3)c(Cl)cc2F)c1=O` (stereo not drawn) [Compound 308, 3-[2-chloro-5-(3,5-dimethyl-2,6-dioxo-4-thioxo-1,3,5-triazinan-1-yl)-4-fluoro-phenyl]-5-methyl-4H-isoxazole-5-carboxamide], the pest or weed control at 250 g/ha in test [1] turned out to be 100%; in test [2], 10%; in [3], 80%; in [4], 50%; in test [5], 60%; in [6], 90%. Besides, the pest or weed control at 250 g/ha in test [7] came out at 100%; in test [8], 100%; in test [9], 100%; in test [10], 100%; in [11], 100%; in test [12], 90%. The pest or weed control at 250 g/ha in test [13] was determined as 100%; in [14] it was 90%; in test [15] it was 100%.

Turning to `CCOC(=O)C1(C)CC(c2cc(-n3c(=O)n(C)c(=S)n(C)c3=O)c(F)cc2Cl)=NO1` (single isomer, unassigned) [Compound 47 (enantiomer B)], the pest or weed control at 250 g/ha in [1] was determined as 100%; in test [2] it was 50%; in [3], 100%; in test [4], 80%; in test [5] it was 40%; in [6], 100%. Besides, the pest or weed control at 250 g/ha in test [7], in test [8], in test [9], in [10], in [11] and in test [12] was 100% throughout. Moreover, the pest or weed control at 250 g/ha in [13] and in [15] was 100% throughout. In addition, the “damage to plant (100=total damage to plant; 0=no damage to plant), LOLPE” value in [14] (250 g/ha) is 100.

Regarding `CCOC(=O)C1(C)CC(c2cc(-n3c(=O)n(C)c(=S)n(C)c3=O)c(Cl)cc2Cl)=NO1` (stereo not drawn) [Compound 58, Ethyl 3-[2,4-dichloro-5-(3,5-dimethyl-2,6-dioxo-4-thioxo-1,3,5-triazinan-1-yl)phenyl]-5-methyl-4H-isoxazole-5-carboxylate], the pest or weed control at 250 g/ha in test [1] came to 90%; in test [2], 0%; in test [3] it was 0%; in test [4] it was 60%; in [5] it was 0%; in [6], 0%. For the same compound, the pest or weed control at 250 g/ha was 90% in test [7]; 90% in test [8]; 80% in [9]; 90% in test [10]; 90% in test [11]; 70% in test [12]. Besides, the pest or weed control at 250 g/ha in [13] stood at 100%; in test [14] it was 30%; in test [15], 90%.

Turning to `CN(C)S(=O)(=O)NC(=O)C1(C)CC(c2cc(-n3c(=O)n(C)c(=S)n(C)c3=O)c(F)cc2Cl)=NO1` (stereo not drawn) [Compound 305, 3-[2-Chloro-5-(3,5-dimethyl-2,6-dioxo-4-thioxo-1,3,5-triazinan-1-yl)-4-fluoro-phenyl]-N-(dimethylsulfamoyl)-5-methyl-4H-isoxazole-5-carboxamide], the pest or weed control at 250 g/ha in [1] was determined as 100%; in [2], 30%; in test [3], 60%; in test [4], 80%; in test [5], 30%; in test [6], 90%. Besides, the pest or weed control at 250 g/ha in test [7], in test [8], in test [9], in test [10], in test [11] and in test [12] was 100% in each case. Moreover, the pest or weed control at 250 g/ha in [13], in test [14] and in [15] was 100% in each case.
